Marks after values point to notes of the source that are not given here.
experiment: Measurement of LogP values by HPLC on reversed phase columns (EEC directive 79/831 Annex V.A8); format: physicochemical; settings: not given
Procedure, shortened: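 LogP measured by reversed-phase HPLC following EEC directive 79/831 Annex V.A8. Lambda-max taken from UV spectra at 200–400 nm at chromatographic peak maxima; diastereoisomer values listed separately.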

Structure (SMILES) | LogP | LogP [a] | LogP [b]
O=C(NCc1cc(F)c(F)c(F)c1)c1snc(N=S2CCCC2)c1Cl [II-045] | – | 1.96^[a] | –
Nc1nsc(C(=O)NCC2CCCCC2)c1C#CCO [I-618] | 1.90[c] | – | –
COc1ccc(CNc2nsc(C(=O)N(Cc3cc(Cl)ccc3F)C3CC3)c2Cl)cc1 [I-988] | 4.49[a] | – | –
COc1ccc(CNc2nsc(C(=O)NC(C)c3nc(C(C)C)no3)c2Cl)cc1 (stereo not drawn) [I-1332] | 3.46[a] | – | –
Cc1cc(C)c(CN(C(=O)c2cc(N(Cc3ccccc3)Cc3ccccc3)ns2)C2CC2)c(C)c1 [I-907] | 6.25[a] | – | –
COc1ccc(CNc2nsc(C(=O)NCc3ccnc(OC)c3)c2Cl)cc1 [I-1204] | 2.78[a] | – | –
COc1ccc(CNc2nsc(C(=O)NC(C)(C)c3ccon3)c2Cl)cc1 [I-1329] | 3.04[a] | – | –
COc1ccc(CNc2nsc(C(=O)NC(=O)C3CCCCC3)c2Cl)cc1 [I-982] | 3.83[a] | – | –
COC(=O)c1snc(N=C(c2ccccc2)c2ccccc2)c1Cl [E-VII-006] | – | 4.40^[a] | –
O=C(NC1CCCCC1c1ccccc1)c1snc(NC(=O)C2CC2)c1Cl (stereo not drawn) [I-302] | 3.19[a] | – | –
O=C(Nc1nsc(C(=O)NCc2ccc(Cl)cc2)c1Cl)c1ccccc1 [I-569] | 2.97[a] | – | –
COc1ccc(CNc2nsc(C(=O)NCC3COCC3C)c2Cl)cc1 (stereo not drawn) [I-1200] | 2.68[a] | – | –
Nc1nsc(C(=O)NCc2ccccc2F)c1C1CC1 [I-361] | 1.88[a] | – | –
COc1ccc(CNc2nsc(C(=O)NCc3noc(C)n3)c2Cl)cc1 [I-1270] | 2.47[a] | – | –
Nc1cc(C(=O)NCc2ccc(F)c(F)c2)sn1 [I-166] | 1.54[a] | – | –
C[C@H](NC(=O)c1snc(NC(=O)C(F)F)c1Cl)C1CCCCC1 [I-522] | 3.06[a] | – | –
C[C@H](NC(=O)c1snc(N)c1Cl)C1CCCCC1 [I-003] | 2.50[a] | – | –
CCOC(=O)c1snc(NC(=O)C(C)(C)C)c1Cl [E-VII-018] | – | 2.48^[a] | –
Nc1nsc(C(=O)NCc2ccc(Cl)cc2F)c1Cl [I-181] | 2.40[a] | – | –
COc1ccc(CNc2nsc(C(=O)NC3CC4CCC3(C)C4(C)C)c2Cl)cc1 (stereo not drawn) [I-572] | 5.02[a]; | – | –
CC1CCCC(C)(C)C1CNC(=O)c1snc(N)c1Cl (stereo not drawn) [I-083] | 3.54[a] | – | –
CC1(C)CC(CNC(=O)c2snc(N)c2Cl)C1 [I-243] | 2.49[a] | – | –

Structure (SMILES) | LogP | LogP [a] | LogP [b]
Cc1ccnc(CNC(=O)c2snc(N)c2Cl)n1 [I-039] | 0.83[a] | – | –
COc1ccc(CNc2nsc(C(=O)NCCc3ccccn3)c2Cl)cc1 [I-1255] | 1.52[a] | – | –
Nc1cc(C(=O)N(Cc2cc(Cl)ccc2F)C2CC2)sn1 [I-999] | 2.49[a] | – | –
CC1CCC(C)(CNC(=O)c2snc(N)c2Cl)CC1 (stereo not drawn) [I-835] | 3.17[a] | – | –
CCS(CC)=Nc1nsc(C(=O)NCC2CCCCC2)c1Cl [II-052] | – | 2.00^[a] | –
COc1ccc(CNc2nsc(C(=O)N(Cc3cc(C)cc(C)c3)C3CC3)c2Cl)cc1 [I-872] | 4.90[a] | – | –
COc1ccc(CNc2nsc(C(=O)N(CC(C)C)C3CC3)c2Cl)cc1 [I-900] | 4.09[a] | – | –
COc1ccc(CNc2nsc(C(=O)NCc3cncc(OC)c3)c2Cl)cc1 [I-1342] | 1.89[a] | – | –
COc1ccc(CNc2nsc(C(=O)NCc3cnn(CC(F)(F)F)c3)c2Cl)cc1 [I-1258] | 2.84[a] | – | –
O=C(c1cc(N(Cc2ccccc2)Cc2ccccc2)ns1)N(Cc1cc(Cl)cc(C(F)(F)F)c1)C1CC1 [I-943] | 6.16[a] | – | –
COc1ccc(CNc2nsc(C(=O)NCc3cccc(C(C)C)n3)c2Cl)cc1 [I-1274] | 2.94[a] | – | –
C[C@H](NC(=O)c1snc(NC2CC2)c1Cl)C1CCCCC1 [I-061] | 3.75[a] | – | –
O=C(NC1CCCC1c1ccccc1)c1snc(NC(=O)C2CC2)c1Cl (stereo not drawn) [I-297] | 2.86[a] | – | –
CCc1ccc(CNC(=O)c2snc(NCc3ccc(OC)cc3)c2Cl)nc1 [I-1193] | 2.34[a] | – | –
CNS(=O)(=O)Nc1nsc(C(=O)NCC2CCCCC2)c1Cl [II-051] | – | 2.38^[a] | –
Nc1nsc(C(=O)NCC2CCCCC2(F)F)c1Cl (stereo not drawn) [I-1294] | 2.07[a] | – | –
COc1ccc(CNC(=O)c2snc(N)c2Cl)c(F)c1 [I-126] | 1.88[a] | – | –
Cc1ccc(C(C)(C)C)c(CNC(=O)c2snc(N)c2Cl)c1 [I-329] | 3.46[a] | – | –
COc1ccc(CNc2nsc(C(=O)N(Cc3c(C)cccc3C)C3CC3)c2Cl)cc1 [I-891] | 4.82[a] | – | –
C[C@H](NC(=S)c1snc(NCC(F)(F)F)c1Cl)C1CCCCC1 [I-429] | 5.14[a] | – | –
Nc1nsc(C(=O)NCc2cccnc2Cl)c1Cl [I-036] | 1.22[a] | – | –
Nc1cc(C(=O)NCc2ccc(Cl)cc2F)sn1 [I-179] | 1.82[a] | – | –

Structure (SMILES) | LogP | LogP [a] | LogP [b]
Nc1nsc(C(=O)NCC2CCCCC2)c1-c1ccc(F)cc1 [I-332] | 2.96[a] | – | –
O=C(NCc1ccccc1Cl)c1snc(Cl)c1Cl [E-II-003] | – | 3.52^[a] | –
Nc1nsc(C(=O)NCC2(O)CCCCC2)c1Cl [I-138] | 1.51[a] | – | –
O=C(NCc1ccccc1F)c1snc(NC(=O)C2CC2)c1Cl [I-093] | 2.12[a] | – | –
Nc1nsc(C(=O)NCc2cncc(F)c2)c1Cl [I-037] | 0.92[a] | – | –
CC1(C)CCCCC1N(C(=O)c1snc(N)c1Cl)C1CC1 (stereo not drawn) [I-863] | 3.30[a] | – | –
COc1ccc(CNc2nsc(C(=O)NCc3ccc(F)c(C(F)(F)F)c3)c2Cl)cc1 [I-1272] | 4.06[a] | – | –
Cc1ccc(S(C)=Nc2nsc(C(=O)NCc3ccc(F)cc3F)c2F)cc1 (stereo not drawn) [II-058] | – | 2.74^[a] | –
C[C@H](NC(=S)c1snc(NC2CC2)c1Cl)C1CCCCC1 [I-428] | 4.84[a] | – | –
COc1ccc(CNc2nsc(C(=O)NOc3ccccc3)c2Cl)cc1 [I-1031] | 3.17[a] | – | –
COc1ccc(CNc2nsc(C(=O)N3CCCc4ccccc43)c2Cl)cc1 [II-097] | – | 3.84^[a] | –
COc1ccc(CNc2nsc(C(=O)NCC3=CCCCC3)c2Cl)cc1 [I-084] | 4.02[a] | – | –
CCc1ccccc1C(C)N(C(=O)c1snc(NCc2ccc(OC)cc2)c1Cl)C1CC1 (stereo not drawn) [I-874] | 5.14[a] | – | –
O=C(NCc1ccc(Cl)cc1)c1snc(NCC(F)(F)F)c1Cl [I-578] | 3.44[a] | – | –
Nc1cc(C(=O)NCc2cc(F)ccc2F)sn1 [I-030] | 1.49[a] | – | –
Cc1cccc2c1N(C(=O)c1snc(N)c1Cl)CCC2 [II-021] | – | 2.43 | 2.36
Nc1nsc(C(=O)NCc2ccc(F)cc2C(F)(F)F)c1Cl [I-324] | 2.61[a] | – | –
COc1ccc(CNc2nsc(C(=O)Nc3ccc(C)c(Cl)c3)c2Cl)cc1 [I-882] | 4.63[a] | – | –
Cc1c(N)nsc1C(=O)NCc1cccc(F)c1F [I-147] | 1.64[a] | – | –
Cc1nn(C)cc1CNC(=O)c1snc(N)c1Cl [I-034] | 0.76[a] | – | –
Nc1nsc(C(=O)N(Cc2cc(F)ccc2F)C2CC2)c1Cl [I-362] | 2.57[a] | – | –
COc1ccc(CNc2nsc(C(=O)N3CCCc4cccc(C)c43)c2Cl)cc1 [II-067] | – | 4.24 | 4.14

Continued, values first:

LogP | LogP [a] | LogP [b] | Structure (SMILES)
1.98[a] | – | – | COc1c(N)nsc1C(=O)NCc1ccc(Cl)cc1 [I-737]
5.51[a] | – | – | COc1ccc(CNc2nsc(C(=O)NC3CCC(C(C)(C)C)CC3)c2Cl)cc1 (stereo not drawn) [I-1252]
3.71[a] | – | – | CC(C)N(Cc1ccc(Cl)cc1Cl)C(=O)c1snc(N)c1Cl [I-213]
2.37[a] | – | – | Nc1nsc(C(=O)NCC2CCCCC2)c1C1CC1 [I-359]
2.71[a] | – | – | Nc1nsc(C(=O)NC2CCCC2c2ccccc2)c1Cl (stereo not drawn) [I-288]
3.19[a] | – | – | O=C(Nc1nsc(C(=O)NCC2CCCCC2)c1Cl)c1ccccc1 [I-168]
2.12[a] | – | – | COc1c(F)ccc(CNC(=O)c2snc(N)c2Cl)c1F [I-464]
4.11[a] | – | – | C[C@H](NC(=O)c1snc(NCC(F)(F)F)c1Cl)C1CCCCC1 [I-427]
1.86[a] | – | – | Cc1c(N)nsc1C(=O)NCc1ccc(Cl)cc1 [I-051]
2.49[a] | – | – | Nc1nsc(C(=O)NCc2cccc(Cl)c2Cl)c1Cl [I-019]
2.09[a] | – | – | C[C@H](NC(=O)c1cc(N)ns1)C1CCCCC1 [I-006]
4.59[a] | – | – | COc1ccc(Nc2nsc(C(=O)N[C@@H](C)C3CCCCC3)c2Cl)cc1 [I-068]
– | 5.00^[a] | – | CC(C)OC(=O)c1snc(N(C(=O)OC(C)(C)C)C(=O)OC(C)(C)C)c1Cl [E-VII-011]
– | 2.62^[a] | – | CCOC(=O)c1snc(NC(=O)c2ccc(F)cc2)c1Cl [E-VII-010]
0.84[a] | – | – | Nc1nsc(C(=O)NC2CC2)c1Cl [I-115]
2.16[a] | – | – | Nc1nsc(C(=O)NCc2ccc(Cl)cc2)c1Cl [I-020]
4.55[a] | – | – | Nc1cc(C(=O)NCc2cc(F)cc(F)c2)sn1 [I-303]
2.51[a] | – | – | Nc1nsc(C(=O)Nc2ccc(Cl)cc2)c1Cl [I-878]
– | 5.07 | 4.94 | CC1(C)C2CCC1(C)C(NC(=O)c1snc(Cl)c1Cl)C2 (stereo not drawn) [E-II-022]
2.66[a] | – | – | CC1(C)CCCCC1NC(=O)c1snc(N)c1Cl (stereo not drawn) [I-082]
6.79[a] | – | – | CC1(C)CC1N(Cc1ccc(Cl)cc1Cl)C(=O)c1cc(N(Cc2ccccc2)Cc2ccccc2)ns1 (stereo not drawn) [I-942]
4.91[a] | – | – | COc1ccc(CNc2nsc(C(=O)N(Cc3c(Cl)cccc3C(F)(F)F)C3CC3)c2Cl)cc1 [I-946]
– | 6.11^[a] | – | CCOC(=O)c1snc(N(Cc2ccccc2)Cc2ccccc2)c1-c1ccc(F)cc1 [E-VII-031]
1.43[a] | – | – | N#Cc1ccccc1CNC(=O)c1snc(N)c1Cl [I-1288]
6.63[a] | – | – | CC(NC(=O)c1snc(N(Cc2ccccc2)Cc2ccccc2)c1-c1ccc(F)cc1)C1CCCCC1 (stereo not drawn) [I-317]
2.78[a] | – | – | Cc1cc(C)c(CNC(=O)c2snc(N)c2Cl)cc1C [I-328]
2.90[a] | – | – | Nc1cc(C(=O)N(Cc2ccc(Cl)cc2Cl)C2CC2)sn1 [I-967]
3.15[a] | – | – | COc1ccc(CNc2nsc(C(=O)NCc3cccn3C)c2Cl)cc1 [I-1211]
3.79[a] | – | – | COc1ccc(CNc2nsc(C(=O)NC(C)c3ccccc3F)c2Cl)cc1 (stereo not drawn) [I-1212]

same assay, conditions: HPLC LC-UV, acidic range, 0.1% formic acid in water and acetonitrile as eluent

Structure (SMILES) | chromatographic logP
c1ccc(CN(Cc2ccccc2)c2ccsn2)cc1 [Z-A-001, N,N-dibenzyl-1,2-thiazol-3-amine] | 4.13

— US20190110476A1, “NOVEL ISOTHIAZOLAMIDES, PROCESSES FOR THEIR PREPARATION AND THEIR USE AS FUNGICIDES” (priority 2014, published 2019)
